# Assay results from US8815936B2 (Nad Life Pty Ltd, priority 2008, dated 2014).
# What was measured:
# [1] = system: Human neuroblastoma cells (SK-N-SH); experiment: Intracellular NAD+ in human neuroblastoma cells treated with H2O2, iron and ascorbic acid; format: cell-based; conditions: for depletion of intracellular NAD+ levels: pre-treatment with 2, 20 and 200 μM, 100 μM H2O2
# [2] = system: primary human foetal astrocytes; experiment: Intracellular NAD+ levels in cultured human foetal astrocytes (NAD(H) microcycling assay); format: cell-based; conditions: for reversal of NAD+ depletion compared to 1-MT treatment alone: supplementation together with 1-MT; for abrogation of resveratrol-induced increase of intracellular NAD+ by de novo pathway inhibitor: inhibitor 1 mM + resveratrol 100 μM
# [3] = system: human primary Keratinocytes; experiment: Residual DNA damage (dsDNA breaks) after UVB, Keratinocytes; format: cell-based; conditions: for amount of dsDNA breaks: EC100 or EC100 equivalent combinations; for EC100: mono therapy, DNA repair
# [4] = system: human primary Fibroblasts; experiment: Residual DNA damage (dsDNA breaks) after UVB, Fibroblasts; format: cell-based; conditions: for amount of dsDNA breaks: EC100 or EC100 equivalent combinations; for EC100: mono therapy, DNA repair
# [5] = system: primary human foetal astrocytes; experiment: H2O2-mediated intracellular NAD+ depletion in human foetal astrocytes; format: cell-based; conditions: for intracellular NAD+ after oxidative (H2O2) insult: 24 hour pre-treatment (Melatonin 5 μM, Clioquinol 10 μM, resveratrol 100 μM), then 100 μM H2O2 15 min
# PARP-1 = conditions: exposure to 10-100 μM H2O2 for 20 min
# [6] = system: primary human foetal astrocytes; conditions: exposure to 10-100 μM H2O2 for 20 min
# [7] = system: human primary Keratinocytes; experiment: Intracellular NAD 24 hr after UVB exposure in human skin cells; format: cell-based; conditions: single therapy 24 hrs after 15 min UVB; NAD levels / LDH activity; N=3
# Description: Human skin cells (keratinocytes) were grown at a density of 5×10^6 in PERMANOX® chamber-slides (NUNC) for 2 weeks. This method is commonly used in the industry and is well known to those skilled in the art. Accordingly, there is no need to detail the method utilised in this specification.
# Cells were either left unexposed or exposed to 15 min UVB (˜200 mJcm^−2).
# Cells were left to incubate for 24 hrs before analysis of intracellular NAD (FIG. 19a-d to FIG. 21) and extracellular LDH (FIG. 21). FIGS. 19a-d show the intracellular NAD concentrations+/−UV exposure, +/−supplementation. FIGS. 19e-h show supernatant LDH activity+/−UVE exposure, +/−supplementation.
# [8] = system: nicotinamide mononucleotide adenylyl transferase (NMNAT); experiment: NMNAT activity in whole cell homogenates of human brain astrocytes; format: biochemical
# [9] = biological target: human recombinant NMNAT (hr-NMNAT1) (Homo sapiens, UniProt Q9HAN9); conditions: resveratrol 50, 100 and 200 μM
# Sequence of human recombinant NMNAT (hr-NMNAT1) (Q9HAN9 whole entry): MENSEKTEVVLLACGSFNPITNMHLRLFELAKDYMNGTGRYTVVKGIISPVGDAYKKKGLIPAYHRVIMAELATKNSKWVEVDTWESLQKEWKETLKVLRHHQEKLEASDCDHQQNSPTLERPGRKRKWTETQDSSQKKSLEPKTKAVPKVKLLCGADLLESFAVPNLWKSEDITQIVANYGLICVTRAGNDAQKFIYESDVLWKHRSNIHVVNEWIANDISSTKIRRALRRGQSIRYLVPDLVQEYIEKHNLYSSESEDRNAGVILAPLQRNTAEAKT
molecule,measurement,setting,value
Vitamin E,depletion of intracellular NAD+ levels,[1],inhibited
"O=C(O)c1cccnc1 [nicotinic acid, Nicotinic acid]",reversal of NAD+ depletion compared to 1-MT treatment alone,[2]; 24 h,partially reversed
NC(=O)c1ccccn1 [Picolinamide],amount of dsDNA breaks,[3]; 24 hr after UVB exposure,significantly reduced
same,EC100,[3],100 µM
same,amount of dsDNA breaks,[4]; 24 hr after UVB exposure,significantly reduced
same,EC100,[4],100 µM
COc1ccc2[nH]cc(CCNC(C)=O)c2c1 [Melatonin],reduction in damaged DNA,[3]; 24 hr after UVB exposure,~30%
same,amount of dsDNA breaks,[3]; 24 hr after UVB exposure,significantly reduced
same,EC100,[3],100 µM
same,reduction in damaged DNA,[4]; 24 hr after UVB exposure,~40%
same,amount of dsDNA breaks,[4]; 24 hr after UVB exposure,significantly reduced
same,EC100,[4],100 µM
same,depletion of intracellular NAD+ levels,[1],inhibited
same,intracellular NAD+ after oxidative (H2O2) insult,[5],significantly reduced NAD^+ depletion
"Cn1cc(C[C@H](N)C(=O)O)c2ccccc21 [1-MT, 1-methyl tryptophan]",intracellular NAD+ levels,"[2]; 1-MT 1 mM, 24 h",significant decrease
same,abrogation of resveratrol-induced increase of intracellular NAD+ by de novo pathway inhibitor,[2]; 24 hour,Neither inhibitor was able to abrogate the resveratrol effect
O=C(O)c1ccccc1C(=O)O [PA],abrogation of resveratrol-induced increase of intracellular NAD+ by de novo pathway inhibitor,[2]; 24 hour,Neither inhibitor was able to abrogate the resveratrol effect
"OO [H2O2, hydrogen peroxide]",PARP-1 activity,PARP-1,significantly increased
same,LDH activity (a measure of cell death),[6],significantly increased
same,Intracellular NAD+,[5]; exposure to 10-100 μM H2O2 for 20 min,significantly decreased
"Oc1ccc(/C=C/c2cc(O)cc(O)c2)cc1 [Resveratrol, 3,5,4′-trihydroxystilbene]",amount of dsDNA breaks,[3]; 24 hr after UVB exposure,significantly reduced
same,EC100,[3],100 µM
same,amount of dsDNA breaks,[4]; 24 hr after UVB exposure,significantly reduced
same,EC100,[4],100 µM
same,intracellular NAD+ versus control levels,"[2]; resveratrol 100 μM, 24 hour",significantly increased
same,increase in intracellular NAD+ concentration,"[2]; resveratrol 100 μM, 24 hour, cells not subject to oxidative stress",approximately 75%
same,Minimum effective concentrations (MEC),[7],50 µM
same,increase of NMNAT activity compared to control,"[8]; 200 μM resveratrol, whole cell homogenates",67%
same,increase of NMNAT activity in the whole cell extract,[8]; presence of resveratrol (FIG. 16),approximately 70%
same,intracellular NAD+ after oxidative (H2O2) insult,[5],did not show a significant change
same,apparent antioxidant activity (H2O2-mediated NAD+ depletion),"[5]; resveratrol 100 μM 24 hour, then H2O2 20 minutes",small reduction in NAD^+ depletion
same,decrease of Km,[9],approximately 3 times
O=c1c(O)c(-c2ccc(O)c(O)c2)oc2cc(O)cc(O)c12 [Quercetin],NAD+ levels after H2O2 exposure,"[5]; quercetin (50 μM) overnight, then 10-100 μM H2O2 for 20 min",significantly preserved
N[C@@H](Cc1c[nH]c2ccccc12)C(=O)O [L-tryptophan],reversal of NAD+ depletion compared to 1-MT treatment alone,[2]; 24 h,partially reversed
O=C(OC[C@H]1O[C@@H](OC(=O)c2cc(O)c(O)c(OC(=O)c3cc(O)c(O)c(O)c3)c2)[C@H](OC(=O)c2cc(O)c(O)c(OC(=O)c3cc(O)c(O)c(O)c3)c2)[C@@H](OC(=O)c2cc(O)c(O)c(OC(=O)c3cc(O)c(O)c(O)c3)c2)[C@@H]1OC(=O)c1cc(O)c(O)c(OC(=O)c2cc(O)c(O)c(O)c2)c1)c1cc(O)c(O)c(OC(=O)c2cc(O)c(O)c(O)c2)c1 [tannic acid],"NAD+ levels, tannic acid alone","[2]; 100 μM, 24 hour incubation",did not significantly reduce
same,effect of resveratrol on intracellular NAD+ levels in presence of tannic acid,"[2]; tannic acid 100 μM + resveratrol 100 μM, 24 hours",completely abrogated
Oc1c(I)cc(Cl)c2cccnc12 [Clioquinol],amount of dsDNA breaks,[3]; 24 hr after UVB exposure,significantly reduced
same,EC100,[3],0.1 µM
same,amount of dsDNA breaks,[4]; 24 hr after UVB exposure,significantly reduced
same,EC100,[4],0.1 µM
same,Minimum effective concentrations (MEC),[7],0.1 µM
same,.OH-induced NAD+ depletion,"[1]; Clioquinol 1 μM-100 μM, dose dependant, 100 μM H2O2, 10 μM iron, 10 μM ascorbic acid",effectively reduced
same,intracellular NAD+ after oxidative (H2O2) insult,[5],significantly reduced NAD^+ depletion
